Results taken from ChEMBL document CHEMBL1133438, “Potent acetylcholinesterase inhibitors: design, synthesis and structure-activity relationships of alkylene linked bis-galanthamine and galanthamine-galanthaminium salts” (Bioorg Med Chem Lett, 2000).

Molecular target: Acetylcholinesterase (Electrophorus electricus, UniProt O42275)
Assay: Compound was assessed for in vitro inhibition of Acetylcholinesterase isolated from Electrophorus electricus

Acetylcholinesterase, sequence (O42275 whole entry): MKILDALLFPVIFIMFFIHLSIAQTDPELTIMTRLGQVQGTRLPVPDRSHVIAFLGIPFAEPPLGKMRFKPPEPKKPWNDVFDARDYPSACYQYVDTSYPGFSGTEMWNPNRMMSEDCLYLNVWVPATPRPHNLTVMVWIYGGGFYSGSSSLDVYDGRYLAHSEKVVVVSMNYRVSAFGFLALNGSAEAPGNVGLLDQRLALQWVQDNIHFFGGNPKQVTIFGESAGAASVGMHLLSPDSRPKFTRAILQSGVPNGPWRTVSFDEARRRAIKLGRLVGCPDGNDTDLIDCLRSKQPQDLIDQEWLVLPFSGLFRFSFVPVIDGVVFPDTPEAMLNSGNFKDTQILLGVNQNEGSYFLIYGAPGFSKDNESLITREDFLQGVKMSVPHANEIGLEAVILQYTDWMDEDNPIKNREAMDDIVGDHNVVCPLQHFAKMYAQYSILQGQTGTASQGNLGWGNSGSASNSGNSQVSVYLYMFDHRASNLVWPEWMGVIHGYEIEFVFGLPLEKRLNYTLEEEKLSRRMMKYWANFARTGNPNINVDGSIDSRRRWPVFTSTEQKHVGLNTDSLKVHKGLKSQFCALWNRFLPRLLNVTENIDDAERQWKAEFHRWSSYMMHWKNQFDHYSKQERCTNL

SMILES | IC50 [nM]
COc1ccc2c3c1OC1C[C@@H](O)C=C[C@@]31CCN(CCCCCCCCN1CC[C@@]34C=C[C@H](OC)C[C@@H]3Oc3c(OC)ccc(c34)C1)C2 (stereo partly specified) | 230
COc1ccc2c3c1OC1C[C@@H](O)C=C[C@@]31CC[N+](CCCCCCN1CC[C@@]34C=C[C@H](O)C[C@@H]3Oc3c(OC)ccc(c34)C1)=C2 (stereo partly specified) | 68
COc1ccc2c3c1OC1C[C@@H](O)C=C[C@@]31CCN(CCCCCCCCCCN1CC[C@@]34C=C[C@H](OC)C[C@@H]3Oc3c(OC)ccc(c34)C1)C2 (stereo partly specified) | 560
COc1ccc2c3c1OC1C[C@@H](O)C=C[C@@]31CC[N+](CCCCCCCCN1CC[C@@]34C=C[C@H](O)C[C@@H]3Oc3c(OC)ccc(c34)C1)=C2 (stereo partly specified) | 22
COc1ccc2c3c1OC1C[C@@H](O)C=C[C@@]31CC[N+](CCCCCCCCCCN1CC[C@@]34C=C[C@H](O)C[C@@H]3Oc3c(OC)ccc(c34)C1)=C2 (stereo partly specified) | 12
COc1ccc2c3c1OC1C[C@@H](O)C=C[C@@]31CCN(CCCCCCN1CC[C@@]34C=C[C@H](OC)C[C@@H]3Oc3c(OC)ccc(c34)C1)C2 (stereo partly specified) | 450
